The values that follow come from publication PMC8412326, “A novel angiotensin I-converting enzyme inhibitory peptide derived from the trypsin hydrolysates of salmon bone proteins” (PLoS ONE, 2021).

Like-named read-outs stand apart in the source and are kept apart here. Ends that are not written are not given here. Bounds are passed on as bounds.

The subject of data set [1] is ACE. The following applies: cited from earlier work. The source says: Trp-Pro-Met-Gly-Phe (636.75 Da) is one such example, obtained from the trypsin hydrolysates of Cyclina sinensis, along with Val-Val-Ser-Leu-Ser-Ile-Pro-Arg (869.53 Da) which comes from pigeon pea seeds. There have been some ACE-inhibitory peptides reported to carry out their ACE-inhibitory activity through an uncompetitive pattern, including Ala-Trp, Phe-Tyr, and Ile-Trp which are derived from wakame hydrolysates of (Undaria pinnatifida) using protease, and also Phe-Glu-Ser-As ...

Data set [2] concerns the target T1, ACE (E.C. 3.4.15.1) derived from rabbit lungs (Oryctolagus cuniculus, UniProt P12822).
T1 construct: ACE (E.C. 3.4.15.1) derived from rabbit lungs; purchased Sigma Chemical Co. (St. Louis, MO, USA); host or cells: rabbit lung tissue
T1 sequence (P12822 34-1310): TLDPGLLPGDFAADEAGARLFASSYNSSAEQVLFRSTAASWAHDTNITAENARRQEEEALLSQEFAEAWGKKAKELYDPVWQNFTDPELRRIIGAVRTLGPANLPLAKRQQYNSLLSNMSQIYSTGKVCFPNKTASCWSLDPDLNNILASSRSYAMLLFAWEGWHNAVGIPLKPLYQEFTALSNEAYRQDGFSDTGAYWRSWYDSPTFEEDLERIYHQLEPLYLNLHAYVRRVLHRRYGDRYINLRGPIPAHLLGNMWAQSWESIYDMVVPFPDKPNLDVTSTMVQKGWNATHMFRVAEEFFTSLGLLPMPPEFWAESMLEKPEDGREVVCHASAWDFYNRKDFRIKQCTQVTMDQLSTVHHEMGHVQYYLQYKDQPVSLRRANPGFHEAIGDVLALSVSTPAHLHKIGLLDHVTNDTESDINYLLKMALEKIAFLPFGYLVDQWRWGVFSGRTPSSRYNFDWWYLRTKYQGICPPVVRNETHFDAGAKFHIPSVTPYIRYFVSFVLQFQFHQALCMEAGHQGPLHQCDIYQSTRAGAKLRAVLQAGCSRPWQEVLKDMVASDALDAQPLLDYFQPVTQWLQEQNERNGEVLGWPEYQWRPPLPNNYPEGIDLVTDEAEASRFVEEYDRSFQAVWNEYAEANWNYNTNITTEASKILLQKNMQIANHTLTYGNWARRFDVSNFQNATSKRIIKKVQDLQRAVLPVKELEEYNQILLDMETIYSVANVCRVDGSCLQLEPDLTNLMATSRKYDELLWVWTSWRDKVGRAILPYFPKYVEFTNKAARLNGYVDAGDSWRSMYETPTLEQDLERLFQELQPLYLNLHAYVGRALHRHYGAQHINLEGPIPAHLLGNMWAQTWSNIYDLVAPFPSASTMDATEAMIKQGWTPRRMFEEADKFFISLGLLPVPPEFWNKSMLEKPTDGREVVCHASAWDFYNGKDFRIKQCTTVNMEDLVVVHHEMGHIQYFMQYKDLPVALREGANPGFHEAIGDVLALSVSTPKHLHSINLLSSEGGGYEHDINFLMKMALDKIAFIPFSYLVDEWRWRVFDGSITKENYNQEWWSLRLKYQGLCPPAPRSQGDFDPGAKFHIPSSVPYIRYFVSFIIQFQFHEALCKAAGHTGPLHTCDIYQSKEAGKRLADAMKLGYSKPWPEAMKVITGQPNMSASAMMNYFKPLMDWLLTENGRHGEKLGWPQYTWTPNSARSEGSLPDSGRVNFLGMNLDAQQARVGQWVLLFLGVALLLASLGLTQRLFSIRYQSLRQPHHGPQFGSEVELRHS
Nature of the data set: ACE-inhibitory activity assay (HHL substrate, TNBS). The data set is classed as biochemical. The following applies: synthetic peptide, purity at least 95%; 5 mM HHL, pH 8.3, 37°C, 1 h, 420 nm. The source says:
(§1) The chemicals used in the study included ACE (E.C. 3.4.15.1) derived from rabbit lungs, acetonitrile, bovine serum albumin (BSA), captopril, dithiothreitol (DTT), hippuric acid, hippuryl-L-histidyl-L-leucine (HHL), o-phthaldehyde (OPA), sodium dodecyl sulfate (SDS), sodium tetraborate decahydrate, 2, 4, 6-trinitrobenzenesulfonic acid (TNBS), and Trypsin from porcine pancreas (1500 U/mg), all of which were obtained from Sigma Chemical Co. (St. Louis, MO, USA). In addition, dithiothreitol (DTT) and L-serine were purchased from Merck (Germany). All chemicals used were of analytical grade.
The ACE -inhibition test was performed following the approach of Ibrahim et al.. At the beginning of the inhibition assay, a 10 μL aliquot of the peptide sample was added to 31 μL of 50 mM potassium phosphate buffer with a pH of 8.3 containing 0.3 M NaCl in each well of the 96-well microplate, while PBS was used for the control reaction. […] The ACE -inhibitory activity was determined by measuring the absorbance at 420 nm. […] The following Eq (3) was used to calculate the percentage of ACE -inhibitory activity: ACE-inhibitoryactivity%=C−Bi−S−Bs/C−Bi×100 (3) in which the absorbance of the control is given by C (100% activity), the sample (inhibitor peptide) is given by S, the blank inhibitor (HHL alone) is given by Bi, and the blank sample (peptide alone) is represented by Bs. […]

Data set [3] deals with T1, ACE (E.C. 3.4.15.1) derived from rabbit lungs. Nature of the data set: ACE inhibition kinetics (Lineweaver-Burk). The data set is classed as biochemical. Particulars: secondary plot 1/Vmax vs peptide concentration; 37°C; n = 3.
From the text: as §1
ACE-inhibition kinetics were evaluated using varied HHL concentrations (0.5, 1, 3, 5, and 7 mM) to which varied FCLYELAR peptide concentrations were introduced (0.05, 0.1 and 0.2 mM). The reaction assay required that the peptide concentrations which had been dissolved in PBS undergo incubation with the ACE solution which contained the different HHL concentrations which had been dissolved in the reaction buffer. Aliquots of sodium sulfite and TNBS were subsequently added prior to 80minutes of incubation at a temperature of 37°C, allowing the level of ACE-inhibitory activity to be evaluated. […] Secondary plots were then used to determine the inhibitor constant (Ki). […]

Data set [4] in a line: Solubility in ultrapure water. The data set is classed as physicochemical. The following applies: read-out: Solubility in ultrapure water (good solubility at concentrations not exceeding the value).
For data set [5], the system named is ACE. Particulars: cited from earlier work. The source says: For example, Phe-Leu was isolated from the hydrolysate of chum salmon muscle by Ono et al.. […] In addition, peptides offering antihypertensive capabilities obtained from ...
This is another data set of the same source.

Where [6] appears, read: hen egg white lysozyme (HEWL) hydrolysates.

On to Ala-Trp, for which the Inhibition pattern entry in the data set with ACE [1] (wakame hydrolysates) is reported as “uncompetitive”. As for “FCLYELAR [FCLYELAR, Phe-Cys-Leu-Tyr-Glu-Leu-Ala-Arg]”, it took 31.63 ± 0.15 µM to reach half-maximal inhibition in data set [2] (IC50). In data set [3], affinity was put at a Ki of 24.8 µM. In addition, the solubility in data set [4] was at least 5000 µg/mL. As to “FESNFNTQATNR [from lysozyme (HEWL) hydrolysates of hens’ eggs]”, in the data set with ACE [1] (setting [6]), the Inhibition pattern result is “uncompetitive”; the Ki (commonly the dissociation constant of the complex between target and ligand, obtained from inhibition or displacement) is 82 µg/mL. Take “FGASTRGA [from Alaska pollack hydrolysates with pepsin]”: the IC50 – broadly, the point on the concentration scale where inhibition reaches its midpoint – in the data set on ACE [5] (Alaska pollack hydrolysate, pepsin) is 14.7 µM. Consider FGMPLDR [from Ulva intestinalis], for which, in the data set with ACE [5] (Ulva intestinalis), the IC50 was 219 µM. As to “Gly-Asp-Leu-Gly-Lys-Thr-Thr-Thr-Val-Ser-Asn-Trp-Ser-Pro-Pro-Lys-Try-Lys-Asp-Thr-Pro [from tuna frame protein]”, in the data set on ACE [5] (tuna frame protein), the IC50 is 11.3 µM. Take Ile-Trp: the Inhibition pattern result with ACE [1] (wakame hydrolysates) is listed as “uncompetitive”.

As for MELVLR [from Ulva intestinalis], in the data set on ACE [5] (Ulva intestinalis), the 50% inhibitory concentration (IC50) was 237 µM. In the case of “MEVFVP [from flounder muscle hydrolysates]”, the IC50 in the data set with ACE [5] (flounder muscle hydrolysate) was 79 µM. With Phe-Leu, the IC50 in the data set with ACE [5] (chum salmon muscle hydrolysate, thermolysin) is 13.6 µM. On to Phe-Tyr, for which the Inhibition pattern entry in the data set with ACE [1] (wakame hydrolysates) is on record as “uncompetitive”. Regarding “Trp-Pro-Met-Gly-Phe [from trypsin hydrolysates of Cyclina sinensis]”, in the data set with ACE [1] (Cyclina sinensis trypsin hydrolysates), the Inhibition pattern result was “competitive”. Take “VSQLTR [from flounder muscle hydrolysates]”: the IC50 in the data set on ACE [5] (flounder muscle hydrolysate) was 105 µM. For VVSLSIPR [from pigeon pea seeds], the Inhibition pattern result with ACE [1] (pigeon pea seeds) is on record as “competitive”. With “YLYEIARR [from the tryptic hydrolysate found in human plasma]”, in the data set on ACE [1] (tryptic hydrolysate of human plasma), the Inhibition pattern result is “uncompetitive”.
